Measurements taken from publication PMC9661477, “New Dual P-Glycoprotein (P-gp) and Human Carbonic Anhydrase XII (hCA XII) Inhibitors as Multidrug Resistance (MDR) Reversers in Cancer Cells” (Journal of Medicinal Chemistry, 2022).
Read-outs that look alike come from different tables or passages of the source.

Columns and labels:
[1] = molecular target: hCA IX (Homo sapiens, UniProt Q16790); assay: stopped-flow CO2 hydrase assay, hCA IX
Description: (§1) An SX.18MV-R Applied Photophysics (Oxford, U.K.) stopped-flow instrument has been used to assay the catalytic/inhibition of various CA isozymes.[38] […] The inhibition constants were obtained by nonlinear least-squares methods using the Cheng–Prusoff equation, as reported earlier,[32] and represent the mean from at least three different determinations.

[2] = molecular target: hCA I (Homo sapiens, UniProt P00915); assay: stopped-flow CO2 hydrase assay, hCA I; details: read-out: Ki hCA I; stopped-flow technique, mean from three different assays
Chain of hCA I (P00915 whole entry): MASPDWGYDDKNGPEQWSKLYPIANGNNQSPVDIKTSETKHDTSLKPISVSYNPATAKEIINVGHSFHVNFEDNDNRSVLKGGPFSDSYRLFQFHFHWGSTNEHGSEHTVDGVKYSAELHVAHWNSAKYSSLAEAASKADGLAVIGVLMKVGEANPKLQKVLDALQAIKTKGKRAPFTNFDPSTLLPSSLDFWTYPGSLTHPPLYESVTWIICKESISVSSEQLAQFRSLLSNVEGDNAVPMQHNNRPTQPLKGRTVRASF
Description: as §1

[3] = molecular target: hCA II (Homo sapiens, UniProt P00918); assay: stopped-flow CO2 hydrase assay, hCA II; details: read-out: Ki hCA II; stopped-flow technique, mean from three different assays
Description: as §1

[4] = read-out: Ki hCA IX, stopped-flow technique, mean from three different assays

With `COc1cc(/C=C/C(=O)OCCCN(CCCCCCCOC(=O)c2cc(OC)c(OC)c(OC)c2)CCCOc2ccc3ccc(=O)oc3c2)cc(OC)c1OC` [Compound 22, (E)-7-((3-((2-Oxo-2H-chromen-7-yl)oxy)propyl)(3-((3-(3,4,5-trimethoxyphenyl)acryloyl)oxy)propyl)amino)heptyl 3,4,5-Trimethoxybenzoate] the Ki [1, 4] was 0.0438 µM, the Ki [2] was greater than 10 µM and the Ki [3] was greater than 10 µM.
In the case of `COc1cc(/C=C/C(=O)OCCCN(CCCCCCCOC(=O)c2c3ccccc3cc3ccccc23)CCCOc2ccc3ccc(=O)oc3c2)cc(OC)c1OC` [Compound 25, (E)-7-((3-((2-Oxo-2H-chromen-7-yl)oxy)propyl)(3-((3-(3,4,5-trimethoxyphenyl)acryloyl)oxy)propyl)amino)heptyl Anthracene-9-carboxylate], the Ki [1, 4] is reported as 0.0711 µM, the Ki [2] is reported as greater than 10 µM and the Ki [3] is reported as greater than 10 µM.
`COc1cc(/C=C/C(=O)OCCCN(CCCCCOC(=O)c2c3ccccc3cc3ccccc23)CCCOc2ccc3ccc(=O)oc3c2)cc(OC)c1OC` [Compound 7, (E)-5-((3-((2-Oxo-2H-chromen-7-yl)oxy)propyl)(3-((3-(3,4,5-trimethoxyphenyl)acryloyl)oxy)propyl)amino)pentyl Anthracene-9-carboxylate] showed a Ki [1, 4] of 0.104 µM, a Ki [2] greater than 10 µM and a Ki [3] greater than 10 µM.
Compound `COc1cc(C(=O)OCCCCCCCN(CCCOC(=O)c2c3ccccc3cc3ccccc23)CCCOc2ccc3ccc(=O)oc3c2)cc(OC)c1OC` [Compound 24, 3-((3-((2-Oxo-2H-chromen-7-yl)oxy)propyl)(7-((3,4,5-trimethoxybenzoyl)oxy)heptyl)amino)propyl Anthracene-9-carboxylate] has a Ki [1, 4] of 0.0385 µM, a Ki [2] greater than 10 µM and a Ki [3] greater than 10 µM.
In the case of `COc1cc(/C=C/C(=O)OCCCCCCN(CCCOC(=O)/C=C/c2cc(OC)c(OC)c(OC)c2)CCCOc2ccc3ccc(=O)oc3c2)cc(OC)c1OC` [Compound 10, (E)-6-((3-((2-Oxo-2H-chromen-7-yl)oxy)propyl)(3-(((E)-3-(3,4,5-trimethoxyphenyl)acryloyl)oxy)propyl)amino)hexyl 3-(3,4,5-Trimethoxyphenyl)acrylate], the Ki [1] is reported as less than 0.01 µM, the Ki [1, 4] is reported as 0.0081 µM and the Ki [2] is reported as greater than 10 µM. The Ki [3] was greater than 10 µM.
Work on `COc1cc(C(=O)OCCCN(CCCCCOC(=O)c2c3ccccc3cc3ccccc23)CCCOc2ccc3ccc(=O)oc3c2)cc(OC)c1OC` [Compound 8, 5-((3-((2-Oxo-2H-chromen-7-yl)oxy)propyl)(3-((3,4,5-trimethoxybenzoyl)oxy)propyl)amino)pentyl Anthracene-9-carboxylate] yielded a Ki [1, 4] of 0.0937 µM, a Ki [2] greater than 10 µM and a Ki [3] greater than 10 µM.
`COc1cc(/C=C/C(=O)OCCCCCN(CCCOC(=O)c2c3ccccc3cc3ccccc23)CCCOc2ccc3ccc(=O)oc3c2)cc(OC)c1OC` [Compound 3, (E)-3-((3-((2-Oxo-2H-chromen-7-yl)oxy)propyl)(5-((3-(3,4,5-trimethoxyphenyl)acryloyl)oxy)pentyl)amino)propyl Anthracene-9-carboxylate] showed a Ki [1] of less than 0.01 µM, a Ki [1, 4] of 0.0079 µM and a Ki [2] greater than 10 µM. The Ki [3] was greater than 10 µM.
In the case of `COc1cc(/C=C/C(=O)OCCCN(CCCCCCOC(=O)c2cc(OC)c(OC)c(OC)c2)CCCOc2ccc3ccc(=O)oc3c2)cc(OC)c1OC` [Compound 13, (E)-6-((3-((2-Oxo-2H-chromen-7-yl)oxy)propyl)(3-((3-(3,4,5-trimethoxyphenyl)acryloyl)oxy)propyl)amino)hexyl 3,4,5-Trimethoxybenzoate], the Ki [1, 4] is reported as 0.0717 µM, the Ki [2] is reported as greater than 10 µM and the Ki [3] is reported as greater than 10 µM.
Work on `COc1cc(C(=O)OCCCCCN(CCCOC(=O)c2c3ccccc3cc3ccccc23)CCCOc2ccc3ccc(=O)oc3c2)cc(OC)c1OC` [Compound 6, 3-((3-((2-Oxo-2H-chromen-7-yl)oxy)propyl)(5-((3,4,5-trimethoxybenzoyl)oxy)pentyl)amino)propyl Anthracene-9-carboxylate] yielded a Ki [1, 4] of 0.0362 µM, a Ki [2] greater than 10 µM and a Ki [3] greater than 10 µM.
Compound `COc1cc(/C=C/C(=O)OCCCCCCN(CCCOC(=O)c2c3ccccc3cc3ccccc23)CCCOc2ccc3ccc(=O)oc3c2)cc(OC)c1OC` [Compound 12, (E)-3-((3-((2-Oxo-2H-chromen-7-yl)oxy)propyl)(6-((3-(3,4,5-trimethoxyphenyl)acryloyl)oxy)hexyl)amino)propyl Anthracene-9-carboxylate] has a Ki [1, 4] of 0.0268 µM, a Ki [2] greater than 10 µM and a Ki [3] greater than 10 µM.
With `COc1cc(C(=O)OCCCCCCCN(CCCOC(=O)c2cc(OC)c(OC)c(OC)c2)CCCOc2ccc3ccc(=O)oc3c2)cc(OC)c1OC` [Compound 23, 7-((3-((2-Oxo-2H-chromen-7-yl)oxy)propyl)(3-((3,4,5-trimethoxybenzoyl)oxy)propyl)amino)heptyl 3,4,5-Trimethoxybenzoate] the Ki [1, 4] was 0.0183 µM, the Ki [2] was greater than 10 µM and the Ki [3] was greater than 10 µM.
`COc1cc(C(=O)OCCCN(CCCCCCOC(=O)c2c3ccccc3cc3ccccc23)CCCOc2ccc3ccc(=O)oc3c2)cc(OC)c1OC` [Compound 17, 6-((3-((2-Oxo-2H-chromen-7-yl)oxy)propyl)(3-((3,4,5-trimethoxybenzoyl)oxy)propyl)amino)hexyl Anthracene-9-carboxylate] showed a Ki [1, 4] of 0.123 µM, a Ki [2] greater than 10 µM and a Ki [3] greater than 10 µM.
`COc1cc(/C=C/C(=O)OCCCCCN(CCCOC(=O)c2cc(OC)c(OC)c(OC)c2)CCCOc2ccc3ccc(=O)oc3c2)cc(OC)c1OC` [Compound 2, (E)-3-((3-((2-Oxo-2H-chromen-7-yl)oxy)propyl)(5-((3-(3,4,5-trimethoxyphenyl)acryloyl)oxy)pentyl)amino)propyl 3,4,5-Trimethoxybenzoate] showed a Ki [1, 4] of 0.0242 µM, a Ki [2] greater than 10 µM and a Ki [3] greater than 10 µM.
`COc1cc(/C=C/C(=O)OCCCN(CCCCCCOC(=O)c2c3ccccc3cc3ccccc23)CCCOc2ccc3ccc(=O)oc3c2)cc(OC)c1OC` [Compound 16, (E)-6-((3-((2-Oxo-2H-chromen-7-yl)oxy)propyl)(3-((3-(3,4,5-trimethoxyphenyl)acryloyl)oxy)propyl)amino)hexyl Anthracene-9-carboxylate] gave a Ki [1, 4] of 0.148 µM, a Ki [2] greater than 10 µM and a Ki [3] greater than 10 µM.
Work on `O=C(OCCCCCN(CCCOC(=O)c1c2ccccc2cc2ccccc12)CCCOc1ccc2ccc(=O)oc2c1)c1c2ccccc2cc2ccccc12` [Compound 9, 3-((5-((Anthracene-9-carbonyl)oxy)pentyl)(3-((2-oxo-2H-chromen-7-yl)oxy)propyl)amino)propyl Anthracene-9-carboxylate] yielded a Ki [1, 4] of 0.137 µM, a Ki [2] greater than 10 µM and a Ki [3] greater than 10 µM.
Work on `COc1cc(C(=O)OCCCN(CCCCCCCOC(=O)c2c3ccccc3cc3ccccc23)CCCOc2ccc3ccc(=O)oc3c2)cc(OC)c1OC` [Compound 26, 7-((3-((2-Oxo-2H-chromen-7-yl)oxy)propyl)(3-((3,4,5-trimethoxybenzoyl)oxy)propyl)amino)heptyl Anthracene-9-carboxylate] yielded a Ki [1, 4] of 0.0413 µM, a Ki [2] greater than 10 µM and a Ki [3] greater than 10 µM.
`COc1cc(C(=O)OCCCCCCN(CCCOC(=O)c2c3ccccc3cc3ccccc23)CCCOc2ccc3ccc(=O)oc3c2)cc(OC)c1OC` [Compound 15, 3-((3-((2-Oxo-2H-chromen-7-yl)oxy)propyl)(6-((3,4,5-trimethoxybenzoyl)oxy)hexyl)amino)propyl Anthracene-9-carboxylate] gave a Ki [1, 4] of 0.0541 µM, a Ki [2] greater than 10 µM and a Ki [3] greater than 10 µM.
`O=C(OCCCCCCCN(CCCOC(=O)c1c2ccccc2cc2ccccc12)CCCOc1ccc2ccc(=O)oc2c1)c1c2ccccc2cc2ccccc12` [Compound 27, 3-((7-((Anthracene-9-carbonyl)oxy)heptyl)(3-((2-oxo-2H-chromen-7-yl)oxy)propyl)amino)propyl Anthracene-9-carboxylate] was tested, and the Ki [1, 4] was 0.102 µM, the Ki [2] was greater than 10 µM and the Ki [3] was greater than 10 µM.
`COc1cc(/C=C/C(=O)OCCCCCCCN(CCCOC(=O)/C=C/c2cc(OC)c(OC)c(OC)c2)CCCOc2ccc3ccc(=O)oc3c2)cc(OC)c1OC` [Compound 19, (E)-7-((3-((2-Oxo-2H-chromen-7-yl)oxy)propyl)(3-(((E)-3-(3,4,5-trimethoxyphenyl)acryloyl)oxy)propyl)amino)heptyl 3-(3,4,5-Trimethoxyphenyl)acrylate] was tested, and the Ki [1, 4] was 0.0278 µM, the Ki [2] was greater than 10 µM and the Ki [3] was greater than 10 µM.
`COc1cc(/C=C/C(=O)OCCCCCCCN(CCCOC(=O)c2cc(OC)c(OC)c(OC)c2)CCCOc2ccc3ccc(=O)oc3c2)cc(OC)c1OC` [Compound 20, (E)-3-((3-((2-Oxo-2H-chromen-7-yl)oxy)propyl)(7-((3-(3,4,5-trimethoxyphenyl)acryloyl)oxy)heptyl)amino)propyl 3,4,5-Trimethoxybenzoate] gave a Ki [1] of less than 0.01 µM, a Ki [1, 4] of 0.0052 µM and a Ki [2] greater than 10 µM. For the same compound, the Ki [3] was greater than 10 µM.
Work on `O=C(OCCCCCCN(CCCOC(=O)c1c2ccccc2cc2ccccc12)CCCOc1ccc2ccc(=O)oc2c1)c1c2ccccc2cc2ccccc12` [Compound 18, 3-((6-((Anthracene-9-carbonyl)oxy)hexyl)(3-((2-oxo-2H-chromen-7-yl)oxy)propyl)amino)propyl Anthracene-9-carboxylate] yielded a Ki [1, 4] of 0.167 µM, a Ki [2] greater than 10 µM and a Ki [3] greater than 10 µM.
`COc1cc(/C=C/C(=O)OCCCCCCN(CCCOC(=O)c2cc(OC)c(OC)c(OC)c2)CCCOc2ccc3ccc(=O)oc3c2)cc(OC)c1OC` [Compound 11, (E)-3-((3-((2-Oxo-2H-chromen-7-yl)oxy)propyl)(6-((3-(3,4,5-trimethoxyphenyl)acryloyl)oxy)hexyl)amino)propyl 3,4,5-Trimethoxybenzoate] was tested, and the Ki [1, 4] was 0.0502 µM, the Ki [2] was greater than 10 µM and the Ki [3] was greater than 10 µM.
For `COc1cc(/C=C/C(=O)OCCCN(CCCCCOC(=O)c2cc(OC)c(OC)c(OC)c2)CCCOc2ccc3ccc(=O)oc3c2)cc(OC)c1OC` [Compound 4, (E)-5-((3-((2-Oxo-2H-chromen-7-yl)oxy)propyl)(3-((3-(3,4,5-trimethoxyphenyl)acryloyl)oxy)propyl)amino)pentyl 3,4,5-Trimethoxybenzoate], the Ki [1, 4] was 0.0588 µM, the Ki [2] was greater than 10 µM and the Ki [3] was greater than 10 µM.
